Numbers after ± are expanded uncertainties.
Settings: 343.15 K, Liquid, Vibrating tube method

CCCCCC(=O)OCC(COC(=O)CCCCC)(COC(=O)CCCCC)COC(=O)CCCCC [pentaerythritol tetrahexanoate]
Settings | mass density [kg/m3]
5696.7 kPa | 961.3 ± 1.2
5737.4 kPa | 961.4 ± 1.2
5771.4 kPa | 961.4 ± 1.2
5805.5 kPa | 961.6 ± 1.2
5839.7 kPa | 961.6 ± 1.2
5880 kPa | 961.6 ± 1.2
5913.7 kPa | 961.6 ± 1.2
5948.1 kPa | 961.5 ± 1.2
5988.1 kPa | 961.6 ± 1.2
6021.6 kPa | 961.7 ± 1.2
6055.8 kPa | 961.8 ± 1.2
6095.9 kPa | 961.7 ± 1.2
6130 kPa | 961.7 ± 1.2
6163.7 kPa | 961.6 ± 1.2
6303.4 kPa | 962.1 ± 1.2
6343 kPa | 961.7 ± 1.2
6375.6 kPa | 961.9 ± 1.2
6408.1 kPa | 961.9 ± 1.2
6440.4 kPa | 961.9 ± 1.2
6478.6 kPa | 962.1 ± 1.2
6509.9 kPa | 962 ± 1.2
6541 kPa | 962.1 ± 1.2
6572.6 kPa | 962.1 ± 1.2
6608.9 kPa | 962.2 ± 1.2
6752.3 kPa | 962.2 ± 1.2
6777.5 kPa | 962.2 ± 1.2
6802.4 kPa | 962.2 ± 1.2
6831.3 kPa | 962.4 ± 1.2
6854.2 kPa | 962.2 ± 1.2
6882.2 kPa | 962.3 ± 1.2
6906 kPa | 962.3 ± 1.2
6930.2 kPa | 962.3 ± 1.2
6953.5 kPa | 962.4 ± 1.2
6977.2 kPa | 962.4 ± 1.2
7001.2 kPa | 962.4 ± 1.2
7029.7 kPa | 962.4 ± 1.2
7054.1 kPa | 962.6 ± 1.2
7078.2 kPa | 962.6 ± 1.2
7102.1 kPa | 962.5 ± 1.2
7130.7 kPa | 962.4 ± 1.2
7154.9 kPa | 962.5 ± 1.2
7179.4 kPa | 962.5 ± 1.2
7208.3 kPa | 962.6 ± 1.2
7233.7 kPa | 962.6 ± 1.2
7260 kPa | 962.6 ± 1.2
7284.4 kPa | 962.6 ± 1.2
7309.2 kPa | 962.7 ± 1.2
7338.6 kPa | 962.7 ± 1.2
7363.8 kPa | 962.7 ± 1.2
7388.9 kPa | 962.6 ± 1.2
7418.5 kPa | 962.7 ± 1.2
7443.8 kPa | 962.8 ± 1.2
7469 kPa | 962.8 ± 1.2
7499.3 kPa | 962.8 ± 1.2
7524.9 kPa | 962.8 ± 1.2
7767.9 kPa | 962.9 ± 1.2
7799 kPa | 963 ± 1.2
7825.1 kPa | 963.1 ± 1.2
7851.3 kPa | 962.9 ± 1.2
7877.7 kPa | 963.1 ± 1.2
7909.5 kPa | 963.1 ± 1.2
7936.7 kPa | 963 ± 1.2
7963.5 kPa | 963.3 ± 1.2
7989.9 kPa | 963.2 ± 1.2
8021.4 kPa | 963.1 ± 1.2
8047.9 kPa | 963.1 ± 1.2
8074.4 kPa | 963.2 ± 1.2
8105.7 kPa | 963.3 ± 1.2
8131.9 kPa | 963.3 ± 1.2
8158.1 kPa | 963.4 ± 1.2
8189.5 kPa | 963.3 ± 1.2
8215.6 kPa | 963.3 ± 1.2
8242.5 kPa | 963.3 ± 1.2
8269.2 kPa | 963.4 ± 1.2
8301.8 kPa | 963.4 ± 1.2
8328.6 kPa | 963.3 ± 1.2
8355.6 kPa | 963.5 ± 1.2
8382.4 kPa | 963.3 ± 1.2
8415.2 kPa | 963.5 ± 1.2
8442.4 kPa | 963.4 ± 1.2
8469.3 kPa | 963.5 ± 1.2
8502.3 kPa | 963.5 ± 1.2
8646.3 kPa | 963.7 ± 1.2
8736.5 kPa | 963.7 ± 1.2
8764.6 kPa | 963.7 ± 1.2
8798.5 kPa | 963.7 ± 1.2
8827.2 kPa | 963.9 ± 1.2
8855.8 kPa | 963.7 ± 1.2
8890.1 kPa | 963.9 ± 1.2
8919.1 kPa | 963.8 ± 1.2
8953.7 kPa | 964 ± 1.2
8982.7 kPa | 963.9 ± 1.2
9012.2 kPa | 963.9 ± 1.2
9047.3 kPa | 964 ± 1.2
9077.3 kPa | 963.9 ± 1.2
9107.5 kPa | 964 ± 1.2
9137.5 kPa | 964 ± 1.2
9173.3 kPa | 964 ± 1.2
9362.4 kPa | 964.1 ± 1.2
9399.5 kPa | 964.2 ± 1.2
9430.7 kPa | 964.2 ± 1.2
9462.9 kPa | 964.2 ± 1.2
9496.5 kPa | 964.2 ± 1.2
9527.5 kPa | 964.2 ± 1.2
9565.2 kPa | 964.4 ± 1.2
9800.6 kPa | 964.4 ± 1.2
11008 kPa | 965.5 ± 1.2
11050 kPa | 965.3 ± 1.2
11087 kPa | 965.3 ± 1.2
11123 kPa | 965.3 ± 1.2
11159 kPa | 965.4 ± 1.2
11202 kPa | 965.4 ± 1.2
11238 kPa | 965.5 ± 1.2
11274 kPa | 965.6 ± 1.2
11701 kPa | 965.7 ± 1.2
11736 kPa | 965.9 ± 1.2
11778 kPa | 965.9 ± 1.2
11813 kPa | 965.9 ± 1.2
11848 kPa | 966 ± 1.2
11889 kPa | 965.9 ± 1.2
11924 kPa | 965.9 ± 1.2
11958 kPa | 966 ± 1.2
11998 kPa | 966.1 ± 1.2
12031 kPa | 966.2 ± 1.2
12159 kPa | 966.1 ± 1.2
12190 kPa | 966.2 ± 1.2
12236 kPa | 966.3 ± 1.2
12264 kPa | 966.2 ± 1.2
12287 kPa | 966.4 ± 1.2
12310 kPa | 966.3 ± 1.2
12337 kPa | 966.4 ± 1.2
12361 kPa | 966.4 ± 1.2
12383 kPa | 966.3 ± 1.2
12808 kPa | 966.7 ± 1.2
12827 kPa | 966.7 ± 1.2
12842 kPa | 966.7 ± 1.2
12857 kPa | 966.7 ± 1.2
12873 kPa | 966.7 ± 1.2
12892 kPa | 966.7 ± 1.2
12909 kPa | 966.7 ± 1.2
12927 kPa | 966.8 ± 1.2
12989 kPa | 966.8 ± 1.2
13011 kPa | 966.7 ± 1.2
13039 kPa | 966.9 ± 1.2
13064 kPa | 967 ± 1.2
